Consider 15 compounds from US20120029036A1, “PHARMACEUTICAL COMPOSITIONS COMPRISING PYRIDYL CYANOGUANIDINE, PROCESS FOR PREPARING THE SAME AND USE THEREOF” (Tianjin Michele Sci-Tech Development Co., Ltd., priority 2009, published 2012).

Data set [1] in a line: Determination of solubility in hydrochloric acid solution of pH 4.0 (saturated solution, HPLC). In kind it is physicochemical. The settings on record: ultrasonic 1 hour; for solubility at 1 h: aqueous buffer, thermodynamic from solid, read-out: Solubilities in hydrochloric acid of pH 4. On the procedure:
1.6 mg of compound 4 was weighed and dissolved in a mixed solution of 1 ml of methanol and 0.5 ml of DMSO to obtain a control solution. 7.66 mg of compound 4 was dissolved in hydrochloric acid solution of pH 4.0 and shaken in an ultrasonic device for 1 hour to prepare a saturated solution. The solubility of compound 4 in hydrochloric acid solution of pH 4.0 was determined by HPLC.
The solubilities of compound 5 to compound 17 in hydrochloric acid solution were determined with the process for determining the solubility in Example 52.

For data set [2], the system named is normal human endothelial cells. As to conditions: in vitro; cited from earlier work.
The next data set deals with human tumour cells. The settings on record: nude mice transplanted human tumour cells; cited from earlier work.
Data set [3] is described as follows: Solubilization of compound 1 with surfactants, solution placed for observation. The settings on record: 12 hours. Format: physicochemical. On the procedure:
2.5 mg of compound 1 was weighed and dissolved with 0.5 ml of 0.1N hydrochloric acid solution. 5% (V/V) of polysorbate 80 was added in the resultant solution. The pH of the solution was adjusted with 0.1N of sodium hydroxide to such an extent that precipitates were just to generate.
2.5 mg of compound 1 was weighed and dissolved with 0.5 ml of 0.1N hydrochloric acid solution. An amount of 0.1 N sodium hydroxide solution which is equal to that in Example 25 was added. Precipitates produced.
2 mg of compound 1 was weighed and dissolved with 0.5 ml of 0.1N hydrochloric acid solution. 5% (V/V) of polyethylene glycol-12-hydroxy stearate was added in the resultant solution. The pH of the solution was adjusted with 0.1N of sodium hydroxide to such an extent that precipitates were just to generate.
2 mg of compound 1 was weighed and dissolved with 0.5 ml of 0.1N hydrochloric acid solution. The pH was adjusted with an amount of 0.1 N sodium hydroxide solution which is equal to that in Example 27. Precipitates produced.
2 mg of compound 1 was weighed and dissolved with 0.5 ml of 0.1N hydrochloric acid solution. 5% (V/V) of polyoxyethylene castor oil was added in the resultant solution. The pH of the solution was adjusted with 0.1N of sodium hydroxide to such an extent that precipitates were just to generate.
2 mg of compound 1 was weighed and dissolved with 0.5 ml of 0.1N hydrochloric acid solution. The pH was adjusted with an amount of 0.1 N sodium hydroxide solution which is equal to that in Example 29. Precipitates produced.

Each structure is given as a SMILES string. ≈ marks a conversion by molar mass, not a printed value.

For the compound `N#CNC(=Nc1ccncc1)NCCCCCCOc1ccccc1Br` [compound 8, N-cyano-N′-(6-(o-bromophenoxy)hexyl)-N″-(4-pyridyl)guanidine], the solubility at 1 h in data set [1] is 205 µg/mL (≈ 494 µM).

In the case of `N#CNC(=Nc1ccncc1)NCCCCCCOC(=O)c1ccc(Cl)cc1` [compound 6, N-(6-((4-chlorobenzoic acid)ester)hexyl)-N′-cyano-N″-(4-pyridyl)guanidine], the “Solubilities in hydrochloric acid of pH 4” value (shortened to “Solubilities”) in data set [1] is listed as 0.00225 mg/ml.

For `N#CNC(=Nc1ccncc1)NCCCCCCOc1ccc(Cl)cc1` [compound 1, N-cyano-N′-(6-(p-chlorophenoxy)hexyl)-N″-(4-pyridyl)guanidine], in data set [2], the “antiproliferative activity to normal human endothelial cells” value is listed as “significantly lower antiproliferative activity”. For the same compound, in the data set with human tumour cells, the antitumour activity result is “potent antitumour activity”. Further, the “appearance of solution on standing” value in data set [3] (Example 25: 0.1N HCl, 5% (V/V) polysorbate 80, pH adjusted with 0.1N NaOH) was “solution kept clear for 12 hours”; in data set [3] (Example 26: control without polysorbate 80, same amount of NaOH), “precipitates increased during 12 hours”; in data set [3] (Example 27: 0.1N HCl, 5% (V/V) polyethylene glycol-12-hydroxy stearate, pH adjusted with 0.1N NaOH), “solution kept clear for 12 hours”; in data set [3] (Example 28: control without polyethylene glycol-12-hydroxy stearate, same amount of NaOH) it was “precipitates increased during 12 hours”; in data set [3] (Example 29: 0.1N HCl, 5% (V/V) polyoxyethylene castor oil, pH adjusted with 0.1N NaOH), “solution kept clear for 12 hours”; in data set [3] (Example 30: control without polyoxyethylene castor oil, same amount of NaOH), “precipitates increased during 12 hours”.

Regarding `N#CNC(=Nc1ccncc1)NCCCCCOc1ccc(Cl)cc1` [compound 13, N-cyano-N′-(5-(p-chlorophenoxy)pentyl)-N″-(4-pyridyl)guanidine], the solubility at 1 h in data set [1] turned out to be 29.5 µg/mL (≈ 82.5 µM).

Take `N#CNC(=Nc1ccncc1)NCCCCCOc1c(Cl)cc(Cl)cc1Cl` [compound 16]: in data set [1], the “Solubilities” value was determined as 0.01753 mg/ml.

Take `N#CNC(=Nc1ccncc1)NCCCCCCCOc1ccccc1Cl` [compound 12, N-cyano-N′-(7-(o-chlorophenoxy)heptyl)-N″-(4-pyridyl)guanidine]: in data set [1], the solubility at 1 h is 3.72 µg/mL (≈ 9.64 µM).

In the case of `COc1ccccc1OCCCCCCCCNC(=Nc1ccncc1)NC#N` [compound 14, N-cyano-N′-(8-((o-methoxyphenyl)oxo)octyl)-N″-(4-pyridyl)guanidine], the “Solubilities” value in data set [1] is given as 0.1481 mg/ml.

As to `N#CNC(=Nc1ccncc1)NCCCCCOc1ccc(Cl)cc1Cl` [compound 15, N-cyano-N′-(5-((2,4-dichlorophenyl)oxo)pentyl)-N″-(4-pyridyl)guanidine], the “Solubilities” value in data set [1] is given as 0.000829 mg/ml.

Turning to `N#CNC(=Nc1ccncc1)NCCCCCCOc1c(Cl)cccc1Cl` [compound 9, N-cyano-N′-(6-((2,6-dichlorophenyl)oxo)hexyl)-N″-(4-pyridyl)guanidine], the “Solubilities” value in data set [1] is reported as 0.05331 mg/ml.

For the compound `CC(C)(C)OC(=O)NCCCCCCCCCCCCNC(=Nc1ccncc1)NC#N` [compound 5, N-(12-(tert-butoxycarbonylamino)dodecyl)-N′-cyano-N″-(4-pyridyl)guanidine], the solubility at 1 h in data set [1] amounted to 0.92 µg/mL (≈ 2.07 µM).

In the case of `N#CNC(=Nc1ccncc1)NCCCCCCOc1ccccc1OC(F)(F)F` [compound 10], in data set [1], the “Solubilities” value is reported as 0.01965 mg/ml.

Turning to `N#CNC(=Nc1ccncc1)NCCCCCCOc1ccc(F)cc1Cl` [compound 7], the “Solubilities” value in data set [1] was 0.09993 mg/ml.

Regarding `N#CN=C(NCCCCCCCCCCCCNC(=NC#N)Nc1ccncc1)Nc1ccncc1` [compound 4, 1,12-bis(N′-cyano-N″-4-pyridylguanidine)dodecane], the “Solubilities” value in data set [1] is listed as 0.00052 mg/ml.

Take `N#CNC(=Nc1ccncc1)NCCCCCOc1ccccc1Cl` [compound 11, N-cyano-N′-(5-(o-chlorophenoxy)pentyl)-N″-(4-pyridyl)guanidine]: in data set [1], the solubility at 1 h was 2.85 µg/mL (≈ 7.96 µM).

On to `N#CNC(=Nc1ccncc1)NCCCCCCOc1c(Cl)cc(Cl)cc1Cl` [compound 17, N-cyano-N′-(6-((2,4,6-trichlorophenyl)oxo)hexyl)-N″-(4-pyridyl)guanidine], for which, in data set [1], the “Solubilities” value came to 0.00669 mg/ml.
